# Patent US11053204B2, “Pyrimidinyloxy benzene derivatives as herbicides” (FMC Corporation, priority 2015, dated 2021)
# Key:
# Type in all cases: in vivo
# [1] = test system: ducksalad (Heteranthera limosa); experiment: Test B flooded paddy test, plant response rating; conditions: 250 g ai/ha; Flood; scale of 0 to 100 where 0 is no effect and 100 is complete control; 13 to 15 days
# How it was run: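 Pots were flooded to 3 cm above the soil surface at treatment, compound applied directly to the paddy water, and that depth held throughout. Plants were kept in a greenhouse for 13 to 15 days, then visually rated against untreated controls.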
# [2] = test system: barnyardgrass (Echinochloa crus-galli); experiment: Test A preemergence, visual injury rating
# How it was run: (§1)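 Scoring: eye-based comparison with untreated controls, 0 for no effect through 100 for complete control, at about day 10. Treatments: directed soil spray preemergence; foliar spray postemergence on 2–10 cm plants at the one- to two-leaf stage. Medium: loam soil with sand.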
# [3] = test system: giant foxtail (Setaria faberii); experiment: Test A preemergence, visual injury rating
# How it was run: as §1
# [4] = test system: pigweed (Amaranthus retroflexus); experiment: Test A preemergence, visual injury rating
# How it was run: as §1
# [5] = test system: Italian ryegrass (Lolium multiflorum); experiment: Test A preemergence, visual injury rating
# How it was run: as §1
# [6] = test system: ragweed (common ragweed, Ambrosia elatior); experiment: Test A preemergence, visual injury rating
# How it was run: as §1
# kochia (Kochia scoparia) [7] = experiment: Test A preemergence, visual injury rating
# How it was run: as §1
# [8] = test system: oat, wild (wild oat Avena fatua); experiment: Test C postemergence, plant response rating; conditions: for Oat, Wild plant response rating: scale 0 to 100 (0 no effect, 100 complete control)
# How it was run: (§2)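 Preemergence: seeds sown in loam–sand blend or silt loam and sprayed with test chemicals in a non-phytotoxic surfactant-containing solvent. Postemergence: potted plants at 2–18 cm (1–4-leaf stage) sprayed with the same formulation. After 13–15 d in greenhouse, visual rating versus controls on 0 (no effect) to 100 (complete control) scale.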
# [9] = test system: barnyardgrass (Echinochloa crus-galli); experiment: Test C postemergence, plant response rating; conditions: for Barnyardgrass plant response rating: scale 0 to 100 (0 no effect, 100 complete control)
# How it was run: as §2
# [10] = test system: nutsedge, yellow (yellow nutsedge, Cyperus esculentus); experiment: Test C postemergence, plant response rating; conditions: for Nutsedge, Yellow plant response rating: scale 0 to 100 (0 no effect, 100 complete control)
# How it was run: as §2
# corn (Zea mays) = experiment: Test C postemergence, plant response rating; conditions: for Corn plant response rating: scale 0 to 100 (0 no effect, 100 complete control)
# How it was run: as §2
# [11] = test system: lambsquarters (Chenopodium album); experiment: Test C postemergence, plant response rating; conditions: for Lambsquarters plant response rating: scale 0 to 100 (0 no effect, 100 complete control)
# How it was run: as §2
# [12] = test system: ragweed (common ragweed, Ambrosia elatior); experiment: Test C postemergence, plant response rating; conditions: for Ragweed plant response rating: scale 0 to 100 (0 no effect, 100 complete control)
# How it was run: as §2
# [13] = test system: morningglory (Ipomoea coccinea); experiment: Test C postemergence, plant response rating; conditions: for Morningglory plant response rating: scale 0 to 100 (0 no effect, 100 complete control)
# How it was run: as §2
# kochia (Kochia scoparia) [14] = experiment: Test C postemergence, plant response rating; conditions: for Kochia plant response rating: scale 0 to 100 (0 no effect, 100 complete control)
# How it was run: as §2
# [15] = test system: velvetleaf (Abutilon theophrasti); experiment: Test C postemergence, plant response rating; conditions: for Velvetleaf plant response rating: 125 g ai/ha, scale 0 to 100 (0 no effect, 100 complete control)
# How it was run: as §2
# [16] = test system: crabgrass, large (large crabgrass, Digitaria sanguinalis); experiment: Test C postemergence, plant response rating; conditions: for Crabgrass, Large plant response rating: scale 0 to 100 (0 no effect, 100 complete control)
# How it was run: as §2
# [17] = 31 g ai/ha, 0 to 100 scale, 0 no effect, 100 complete control
# [18] = 125 g ai/ha, 0 to 100 scale (0 no effect, 100 complete control)
structure (smiles),measurement,setting,value
FC(F)(F)CCCCc1c(Cl)cccc1Oc1ncc(Cl)cn1 [Compound 137],"Plant response rating, Ducksalad",[1],95
same,"Plant response rating, Barnyardgrass",[2]; [17],0
same,"Plant response rating, Barnyardgrass",[2]; [18],90
same,"Plant response rating, Foxtail, Giant",[3]; [17],70
same,"Plant response rating, Foxtail, Giant",[3]; [18],100
same,"Plant response rating, Pigweed",[4]; [17],10
same,"Plant response rating, Pigweed",[4]; [18],100
same,"Plant response rating, Ryegrass, Italian",[5]; [17],0
same,"Plant response rating, Ryegrass, Italian",[5]; [18],20
same,"Plant response rating, Ragweed",[6]; [17],0
same,"Plant response rating, Ragweed",[6]; [18],0
same,"Plant response rating, Kochia",kochia (Kochia scoparia) [7]; [17],0
same,"Plant response rating, Kochia",kochia (Kochia scoparia) [7]; [18],70
same,"Plant response rating, Oat, Wild","[8]; 16 g ai/ha, scale of 0 to 100",5
same,"Plant response rating, Oat, Wild","[8]; 31 g ai/ha, scale 0 to 100",10
same,"Oat, Wild plant response rating",[8]; 62 g ai/ha,10
same,"Oat, Wild plant response rating",[8]; 125 g ai/ha,10
same,"Plant response rating, Barnyardgrass","[9]; 16 g ai/ha, scale 0 to 100",10
same,"Plant response rating, Barnyardgrass","[9]; 31 g ai/ha, scale 0 to 100",10
same,Barnyardgrass plant response rating,[9]; 62 g ai/ha,20
same,Barnyardgrass plant response rating,[9]; 125 g ai/ha,40
same,"Plant response rating, Nutsedge, Yellow","[10]; 16 g ai/ha, scale of 0 to 100",0
same,"Plant response rating, Nutsedge, Yellow","[10]; 31 g ai/ha, scale 0 to 100",0
same,"Nutsedge, Yellow plant response rating",[10]; 62 g ai/ha,10
same,"Nutsedge, Yellow plant response rating",[10]; 125 g ai/ha,5
same,"Plant response rating, Corn","corn (Zea mays); 16 g ai/ha, scale of 0 to 100",10
same,"Plant response rating, Corn","corn (Zea mays); 31 g ai/ha, scale 0 to 100",15
same,Corn plant response rating,corn (Zea mays); 62 g ai/ha,15
same,Corn plant response rating,corn (Zea mays); 125 g ai/ha,25
same,"Plant response rating, Lambsquarters","[11]; 16 g ai/ha, scale of 0 to 100",55
same,"Plant response rating, Lambsquarters","[11]; 31 g ai/ha, scale 0 to 100",75
same,Lambsquarters plant response rating,[11]; 62 g ai/ha,85
same,Lambsquarters plant response rating,[11]; 125 g ai/ha,90
same,"Plant response rating, Ragweed","[12]; 16 g ai/ha, scale of 0 to 100",20
same,"Plant response rating, Ragweed","[12]; 31 g ai/ha, scale 0 to 100",35
same,Ragweed plant response rating,[12]; 62 g ai/ha,30
same,Ragweed plant response rating,[12]; 125 g ai/ha,30
same,"Plant response rating, Morningglory","[13]; 16 g ai/ha, scale of 0 to 100",10
same,"Plant response rating, Morningglory","[13]; 31 g ai/ha, scale 0 to 100",15
same,Morningglory plant response rating,[13]; 62 g ai/ha,20
same,Morningglory plant response rating,[13]; 125 g ai/ha,20
same,"Plant response rating, Kochia","kochia (Kochia scoparia) [14]; 16 g ai/ha, scale of 0 to 100",85
same,"Plant response rating, Kochia","kochia (Kochia scoparia) [14]; 31 g ai/ha, scale 0 to 100",90
same,Kochia plant response rating,kochia (Kochia scoparia) [14]; 62 g ai/ha,98
same,Kochia plant response rating,kochia (Kochia scoparia) [14]; 125 g ai/ha,98
same,"Plant response rating, Velvetleaf","[15]; 16 g ai/ha, scale of 0 to 100",10
same,"Plant response rating, Velvetleaf","[15]; 31 g ai/ha, scale 0 to 100",15
same,Velvetleaf plant response rating,[15],70
same,"Plant response rating, Crabgrass, Large","[16]; 16 g ai/ha, scale of 0 to 100",10
same,"Plant response rating, Crabgrass, Large","[16]; 31 g ai/ha, scale 0 to 100",20
same,"Crabgrass, Large plant response rating",[16]; 62 g ai/ha,40
same,"Crabgrass, Large plant response rating",[16]; 125 g ai/ha,70
N#CC(CCCC(F)(F)F)c1ccccc1Oc1ncc(Cl)cn1 (centres unmarked) [Compound 144],"Plant response rating, Ducksalad",[1],100
same,"Plant response rating, Barnyardgrass",[2]; [17],80
same,"Plant response rating, Barnyardgrass",[2]; [18],100
same,"Plant response rating, Foxtail, Giant",[3]; [17],100
same,"Plant response rating, Foxtail, Giant",[3]; [18],100
same,"Plant response rating, Pigweed",[4]; [17],100
same,"Plant response rating, Pigweed",[4]; [18],100
same,"Plant response rating, Ryegrass, Italian",[5]; [17],20
same,"Plant response rating, Ryegrass, Italian",[5]; [18],70
same,"Plant response rating, Ragweed",[6]; [17],0
same,"Plant response rating, Ragweed",[6]; [18],10
same,"Plant response rating, Kochia",kochia (Kochia scoparia) [7]; [17],90
same,"Plant response rating, Kochia",kochia (Kochia scoparia) [7]; [18],100
same,"Plant response rating, Oat, Wild","[8]; 16 g ai/ha, scale of 0 to 100",20
same,"Plant response rating, Oat, Wild","[8]; 31 g ai/ha, scale 0 to 100",30
same,"Oat, Wild plant response rating",[8]; 62 g ai/ha,30
same,"Oat, Wild plant response rating",[8]; 125 g ai/ha,35
same,"Plant response rating, Barnyardgrass","[9]; 16 g ai/ha, scale of 0 to 100",5
same,"Plant response rating, Barnyardgrass","[9]; 31 g ai/ha, scale 0 to 100",5
same,Barnyardgrass plant response rating,[9]; 62 g ai/ha,10
same,Barnyardgrass plant response rating,[9]; 125 g ai/ha,10
same,"Plant response rating, Nutsedge, Yellow","[10]; 16 g ai/ha, scale of 0 to 100",0
same,"Plant response rating, Nutsedge, Yellow","[10]; 31 g ai/ha, scale 0 to 100",0
same,"Nutsedge, Yellow plant response rating",[10]; 62 g ai/ha,10
same,"Nutsedge, Yellow plant response rating",[10]; 125 g ai/ha,10
same,"Plant response rating, Corn","corn (Zea mays); 16 g ai/ha, scale of 0 to 100",15
same,"Plant response rating, Corn","corn (Zea mays); 31 g ai/ha, scale 0 to 100",15
same,Corn plant response rating,corn (Zea mays); 62 g ai/ha,20
same,Corn plant response rating,corn (Zea mays); 125 g ai/ha,25
same,"Plant response rating, Lambsquarters","[11]; 16 g ai/ha, scale of 0 to 100",40
same,"Plant response rating, Lambsquarters","[11]; 31 g ai/ha, scale 0 to 100",75
same,Lambsquarters plant response rating,[11]; 62 g ai/ha,70
same,Lambsquarters plant response rating,[11]; 125 g ai/ha,85
same,"Plant response rating, Ragweed","[12]; 16 g ai/ha, scale of 0 to 100",10
same,"Plant response rating, Ragweed","[12]; 31 g ai/ha, scale 0 to 100",15
same,Ragweed plant response rating,[12]; 62 g ai/ha,25
same,Ragweed plant response rating,[12]; 125 g ai/ha,15
same,"Plant response rating, Morningglory","[13]; 16 g ai/ha, scale of 0 to 100",30
same,"Plant response rating, Morningglory","[13]; 31 g ai/ha, scale 0 to 100",20
same,Morningglory plant response rating,[13]; 62 g ai/ha,50
same,Morningglory plant response rating,[13]; 125 g ai/ha,60
same,"Plant response rating, Kochia","kochia (Kochia scoparia) [14]; 16 g ai/ha, scale of 0 to 100",85
same,"Plant response rating, Kochia","kochia (Kochia scoparia) [14]; 31 g ai/ha, scale 0 to 100",90
same,Kochia plant response rating,kochia (Kochia scoparia) [14]; 62 g ai/ha,90
same,Kochia plant response rating,kochia (Kochia scoparia) [14]; 125 g ai/ha,90
same,"Plant response rating, Velvetleaf","[15]; 16 g ai/ha, scale of 0 to 100",25
same,"Plant response rating, Velvetleaf","[15]; 31 g ai/ha, scale 0 to 100",30
same,Velvetleaf plant response rating,[15],65
same,"Plant response rating, Crabgrass, Large","[16]; 16 g ai/ha, scale of 0 to 100",10
same,"Plant response rating, Crabgrass, Large","[16]; 31 g ai/ha, scale 0 to 100",25
same,"Crabgrass, Large plant response rating",[16]; 62 g ai/ha,20
same,"Crabgrass, Large plant response rating",[16]; 125 g ai/ha,25
